Assay results taken from patent publication US6036941A, “Fluorogenic substrates for diagnosis and photodynamic treatment of tumors” (Consiglio Nazionale Delle Ricerche, priority 1995, dated 2000).

How the values were obtained:
[1] = test system: lymphocytes and granulocytes; test: Hydrolysis activity in white blood cells on smears; assay type: cell-based
[2] = Rose Bengal in blood samples of treated mice; assay type: in vivo; settings: Swiss mice treated with 8 mg/kg
Method: Considering the possible systemic use of Rose Bengal acetate, the effect was evaluated of the serum esterase activity on the hydrolysis kinetics of the fluorogenic substrate. The esterase activity of the blood can induce an extracellular hydrolysis of Rose Bengal acetate. The kinetics, however, of this hydrolysis is slow enough to permit the cellular compartment to accumulate and hydrolyse the Rose Bengal acetate according to the intracellular esterase activity. In any case the hydrolysed Rose Bengal is quickly eliminated from the blood.

[3] = test system: B16 cells (mouse melanoma); test: Photosensitizer accumulation in drug-resistant versus sensitive B16 cells; assay type: cell-based
Method: (§1) The cells were treated with Rose Bengal acetate at doses between 5×10^-5 and 10^-7 M, and with 10^-5 M Photofrin®. The intracellular accumulation of photosensitizer was evaluated in terms of fluorescence intensity. Giving a value of 100 to the photosensitizer amount present in each sensitive cell line, the amount of photosensitizer retained in the corresponding resistant cell line is 100% and 85% for Photofrin and 170% and 120% for Rose Bengal, in IGROV and POGB respectively. A more evident difference of the accumulation capacity between Photofrin and Rose Bengal can be observed in the case of B16 cells, a line derived from mouse melanoma. In this case the amount of Photofrin® accumulated in resistant cells is about 65% of that in sensitive ones, while the amount of Rose Bengal is about 120%.

rat glioma (C6) cells [4] = test: Cellular vitality tests (trypan blue and fluorescein diacetate methods); assay type: cell-based; settings: incubation for 4 h at concentrations up to 1×10^-4 M, no irradiation
From the text: The hydrophobicity of the intracellular environment would therefore seem to create the structural condition that favours the action of the enzyme. […] The finding relative to Rose Bengal agrees with the literature (R. P. G. Feenstra and S. C. G. Tseng, Ophthalmology, 99 605, 1992).

[5] = test system: normal fibroblast line and sarcoma-derived cell line of Galliera rats; test: Intracellular drug accumulation, normal fibroblasts versus sarcoma-derived cells; assay type: cell-based, rat
Method: A comparison of intracellular drug accumulation was made between normal and tumour cells. As a model, a normal fibroblast line from embryos (6-10 days) of Galliera strain rats, and a stabilised cell line derived from sarcoma spontaneously growing in syngeneic Galliera rats, were used. After incubation with Rose Bengal acetate at a concentration of 5×10^-6 M for 2 hours, a ratio of intracellular photosensitizer concentration of about 16 was measured between normal and transformed cells, in terms of fluorescence intensity at 580 nm. The ratio of the esterase activity in the two cell lines was found less than the ratio shown by the photosensitizer: this can be explained by the fact that the Rose Bengal produced by the enzyme activity is a polar compound. It must be considered that in this form Rose Bengal requires an active transport mechanism to be released (E. Prosperi, A. C. Croce et al. Cytometry, 7, 70-75, 1986), and that the tumour cells are characterised by an impaired metabolic condition (J. Szollosi, P. Kertai et al. J. Histochem. Cytochem. 29, 503-510, 1982), that enhances the photosensitizer accumulation.
The same cell lines, treated with the most commonly used photosensitizer, Photofrin®, at the concentration of 2×10^-5 M for a time of 2 hours yielded a ratio value of about 8 (FIG. 6).

[6] = test system: IGROV cells (ovarian carcinoma); test: Photosensitizer accumulation in drug-resistant versus sensitive IGROV cells; assay type: cell-based, human; settings: Rose Bengal acetate 5×10^-5 to 10^-7 M, Photofrin 10^-5 M, fluorescence intensity
Method: (§2) Tests were also performed on cell lines derived from human tumours: POGB, from bronchial microcytoma, and IGROV, from ovarian carcinoma. In particular, for each line a comparison was made between the cells sensitive and resistant to chemotherapeutic agents. […] Results related to Rose Bengal treatment were compared with those obtained with Photofrin®, a well-establishes photosensitizer.
as §1

rat glioma (C6) cells [7] = test: Phototoxicity after irradiation at 540±5 nm, cell count 24 h later; assay type: cell-based; settings: 2 mw/cm^2, up to 2.4 J, compared with Rose Bengal (FIG. 5)
From the text: The cells treated with Rose Bengal or with Rose Bengal acetate as described above were submitted to irradiation at 540±5 nm by a Xe 75 W lamp and an interference filter.
Irradiation was realised with a power of 2 mw/cm^2 for various times until the administration of a maximum dose of 2.4 J, in accordance with the protocols normally used in tests of phototoxicity. The irradiation was effected in HBSS buffer (Hank's Balanced Salt Solution, J. H. Hanks and R. E. Wallace, Proc. Natl. Exp. Biol. Med 71, 196, 1949) in the absence of the drug in the culture medium to avoid secondary effects. Twenty-four hours after irradiation the cells adhering to the slide on which they had been grown were counted. The expression of phototoxicity was defined as the ratio between the number of cells present after the treatment and those counted on the untreated controls. […] This effect relates directly to the quantity of fluorescent substance with photosensitisation activity produced by the enzyme activity, evaluated as fluorescence intensity at 580 nm (FIG. 4).

[8] = test system: POGB cells (bronchial microcytoma); test: Photosensitizer accumulation in drug-resistant versus sensitive POGB cells; assay type: cell-based, human; settings: Rose Bengal acetate 5×10^-5 to 10^-7 M, Photofrin 10^-5 M, fluorescence intensity
Method: as §2, §1

rat glioma (C6) cells [9] = test: Intracellular accumulation and hydrolysis kinetics in C6 cell cultures; assay type: cell-based
Method: Evaluations of the kinetics of intracellular accumulation of Rose Bengal acetate were performed on cultures of an established cell line of rat glioma (C6) which grows as a monolayer. This cell line is widely used for pharmaco-kinetic studies of fluorescent substances with photosensitisation activity by virtue of its rapid proliferation activity and the possibility of modifying the physiological activities of the cells.
It is particularly important that, principally in short-term treatments, a continuous increase of intracellular Rose Bengal is recorded in the cells treated with the acetylated species, even when the cells are transferred into a medium devoid of this substance. This can easily be interpreted in terms of the balance between the processes of incorporation and hydrolysis. Since the process of incorporation is rapider than that of hydrolysis, inside the cells an accumulation is created of hydrolysable substance on which the enzyme can continue to effect its action through time.
Further, it is interesting to note that the kinetics of hydrolysis of Rose Bengal acetate is accelerated by the cellular environment: the Km passes from about 10^-3 M in conditions of hydrolysis in solution to about 10^-6 M in the cells.

[10] = test system: purified esterase enzyme of pig liver; test: Enzyme hydrolysis by purified pig liver esterase, followed fluorometrically; assay type: biochemical; settings: hydrolysis in solution, phosphate buffer 0.2 M pH 6.85, 20° C., esterase 25 U/ml; read-out: enzyme hydrolysis constant Km
Method: To the solution of Rose Bengal acetate 3×10^-5 M in phosphate buffer 0.2 M (pH 6.85) was added the purified esterase enzyme of pig liver (Sigma Chem, Co., GB) at the final concentration of 25 U/ml. The reaction was performed at room temperature (20° C.) and the formation of the product was measured fluorometrically (excitation 525 nm, emission 565 nm). In a second group of experiments, to the reaction solution was added human albumin (Sigma Chem. Co, GB) at the concentration of 0.1 mg/ml, better to simulate the conditions of hydrophobicity to be met in the cells. In these conditions, the appearance of the fluorescence was accelerated.
The kinetics of hydrolysis was followed by determining the intensity of fluorescence at 565 nm corresponding to the peak of emission of Rose Bengal. Examples of curves of hydrolysis kinetics are shown in FIG. 3 in which the curve (a) represents the intensity of fluorescence in time of a solution of Rose Bengal acetate subjected to hydrolysis in the presence of albumin with esterase, and the curve (b) represent the intensity of fluorescence of the solution of Rose Bengal acetate with albumin, in the absence of esterase, at the concentration of 3×10^-5 M.

| Compound | hydrolysis activity in lymphocytes, less than in granulocytes [1] [%] | Rose Bengal in the blood [2] | amount accumulated in resistant cells relative to sensitive ones [3] | cell mortality (rat glioma (C6) cells [4]) | ratio of intracellular photosensitizer concentration between normal and transformed cells ([5]; 2 h, 5 µM) | amount of photosensitizer retained in resistant cell line (sensitive line = 100) [6] [%] | phototoxicity (cell survival) (rat glioma (C6) cells [7]) | amount of photosensitizer retained in resistant cell line (sensitive line = 100) [8] [%] | Km (rat glioma (C6) cells [9]) [µM] | Km [10] [µM] | ratio of intracellular photosensitizer concentration between normal and transformed cells ([5]; 2×10^-5 M for 2 hours) |
| --- | --- | --- | --- | --- | --- | --- | --- | --- | --- | --- | --- |
| CC(=O)Oc1c(I)cc2c(-c3c(Cl)c(Cl)c(Cl)c(Cl)c3C(=O)O)c3cc(I)c(=O)c(I)c-3oc2c1I [Rose Bengal acetate] | 40 | do not present appreciable quantities | about 120% | no significant cell mortality | about 16 | 170 | strong phototoxic effect | 120 | ~1 | ~1000 |  |
| Photofrin® [reference compound] |  |  | about 65% |  |  | 100 |  | 85 |  |  | about 8 |
| CC(=O)Oc1ccc2c(c1)Oc1cc(OC(C)=O)ccc1C21OC(=O)c2ccccc21 [diacetate fluorescein, reference compound] |  |  |  |  |  |  |  |  |  | 5 |  |
| O=C(O)c1c(Cl)c(Cl)c(Cl)c(Cl)c1-c1c2cc(I)c(=O)c(I)c-2oc2c(I)c(O)c(I)cc12 [Rose Bengal, reference compound] |  |  |  | no significant cell mortality |  |  |  |  |  |  |  |
